Results published in patent publication US20180370912A1, “COMPOUNDS AND METHODS FOR TREATING DISEASES MEDIATED BY PROTEIN DISULFIDE ISOMERASE” (Beth Israel Deaconess Medical Center, Inc., priority 2017, published 2018).

How the values were obtained:
human wild-type PDI = molecular target: T1, human wild-type PDI (Homo sapiens, UniProt P07237); assay: Redox potential determination by differential cysteine alkylation and mass spectrometry
T1 construct: FLAG; made in house; host or cells: Escherichia coli Origami B (DE3), pET-15b
Method: The redox potentials of the a (Cys53-Cys56) and a′ (Cys397-Cys400) active-site dithiols/disulfides of human wild-type PDI in the absence or presence of bepristat 2b were determined by differential cysteine alkylation and mass spectrometry. Recombinant PDI (5 μM) was incubated in the absence or presence of bepristat 2b (50 μM) in argon-flushed phosphate-buffered saline containing 0.1 mM EDTA, 0.2 mM oxidized glutathione (GSSG, Sigma) and various concentrations of reduced glutathione (GSH, Sigma) for 18 h at room temperature. Microcentrifuge tubes were flushed with argon prior to sealing to prevent oxidation by ambient air during the incubation period. […]
The fraction of reduced active-site disulfide bond was measured from the relative ion abundance of peptides containing ^12C-IPA and ^13C-IPA. […] The area was calculated using the automated peak detection function built into the software. […] The results were expressed as the ratio of reduced to oxidized protein and fitted to equation 1: […]
where R is the fraction of reduced protein at equilibrium, B is the baseline fraction of the cysteine in the population that is in the reduced state and Keq is the equilibrium constant. The standard redox potential (E^0′) of the PDI active-site disulfides were calculated using the Nernst equation (equation 2): […]

tumor growth = conditions: murine model ovarian cancer, Xu et al. 2012; cited from earlier work
thioredoxin = molecular target: T2, thioredoxin (Homo sapiens, UniProt P10599); assay: Maleimide-polyethylene glycol-2-biotin (MPB) binding; conditions: 150 μM inhibitor, FIG. 2c, FIG. 8
T2 sequence (P10599 1-105): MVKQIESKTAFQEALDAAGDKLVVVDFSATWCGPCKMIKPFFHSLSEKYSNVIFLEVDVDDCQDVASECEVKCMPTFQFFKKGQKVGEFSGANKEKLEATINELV
Method: (§1) Maleimide-Polyethanol glycol-2-Biotin (MPB) binding experiments were performed in a reaction volume of 37.5 μL with 5 μM of thiol isomerase or bovine serum albumin (BSA) in Tris-buffered saline (TBS), in the presence and absence of 1 mM of N-ethylmaleimide (NEM) or bacitracin, and 150 μM of the mentioned other inhibitors. The reaction mixture was incubated at 37° C. for 1 hour. Subsequently, the reaction mixtures were incubated with 25 μM of MPB. The labeling was performed for 20 minutes at 25° C. A total of 12.5 μL of 4× Laemmli Sample Buffer with 5% β-mercaptoethanol was added to each of the samples, followed by heating at 95° C. for 10 minutes. From each sample, 10 μL was loaded on a 12% SDS-PAGE gel, followed by transfer on a nitrocellulose membrane. After blocking the membrane with TBS-T containing 5% BSA for one hour, the membrane was incubated with a 1:2000 dilution of Cy5-tagged Streptavidin for an hour in the dark. Detection of the immunoblots was performed using ImageQuant LAS 4000 and analysis was performed using ImageQuant TL software.

ERp5 = molecular target: T3, ERp5 (Homo sapiens, UniProt Q15084); assay: as above; conditions: 150 μM inhibitor, FIG. 2c, FIG. 8
T3 construct: recombinant His-tagged full-length ERp5, ERp72 and PDI domain fragments; His; made in house; host or cells: Escherichia coli Origami B (DE3), pET-15b
T3 sequence (Q15084 20-440): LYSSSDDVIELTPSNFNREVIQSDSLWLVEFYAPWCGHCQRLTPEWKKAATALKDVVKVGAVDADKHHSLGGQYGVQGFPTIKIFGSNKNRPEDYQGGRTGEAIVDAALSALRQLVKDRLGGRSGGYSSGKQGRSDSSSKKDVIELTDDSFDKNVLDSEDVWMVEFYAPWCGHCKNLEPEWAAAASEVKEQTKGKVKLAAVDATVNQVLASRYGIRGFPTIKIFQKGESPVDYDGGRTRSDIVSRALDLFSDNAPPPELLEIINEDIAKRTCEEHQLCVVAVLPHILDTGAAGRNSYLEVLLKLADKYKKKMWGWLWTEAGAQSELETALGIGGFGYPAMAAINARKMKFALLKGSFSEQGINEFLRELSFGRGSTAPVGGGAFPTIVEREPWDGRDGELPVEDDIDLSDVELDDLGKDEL
Method: as §1

ERp57 = molecular target: T4, ERp57 (Homo sapiens, UniProt P30101); assay: as above; conditions: 150 μM inhibitor, FIG. 2c, FIG. 8
T4 construct: FLAG; made in house; host or cells: Escherichia coli Origami B (DE3), pET-15b
T4 sequence (P30101 25-505): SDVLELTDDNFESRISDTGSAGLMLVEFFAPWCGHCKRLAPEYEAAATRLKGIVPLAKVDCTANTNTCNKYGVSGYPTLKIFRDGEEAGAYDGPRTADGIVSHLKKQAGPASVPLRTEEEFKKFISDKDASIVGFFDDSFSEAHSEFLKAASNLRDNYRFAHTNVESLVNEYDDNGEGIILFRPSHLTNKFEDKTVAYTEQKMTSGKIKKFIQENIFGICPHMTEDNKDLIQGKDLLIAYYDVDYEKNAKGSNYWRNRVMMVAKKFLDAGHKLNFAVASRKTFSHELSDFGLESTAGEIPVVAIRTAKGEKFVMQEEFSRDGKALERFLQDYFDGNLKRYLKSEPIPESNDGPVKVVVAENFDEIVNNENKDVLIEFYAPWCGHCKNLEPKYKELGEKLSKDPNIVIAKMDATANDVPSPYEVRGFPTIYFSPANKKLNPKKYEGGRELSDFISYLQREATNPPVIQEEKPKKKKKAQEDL
Method: as §1

T1 sequence (P07237 18-508): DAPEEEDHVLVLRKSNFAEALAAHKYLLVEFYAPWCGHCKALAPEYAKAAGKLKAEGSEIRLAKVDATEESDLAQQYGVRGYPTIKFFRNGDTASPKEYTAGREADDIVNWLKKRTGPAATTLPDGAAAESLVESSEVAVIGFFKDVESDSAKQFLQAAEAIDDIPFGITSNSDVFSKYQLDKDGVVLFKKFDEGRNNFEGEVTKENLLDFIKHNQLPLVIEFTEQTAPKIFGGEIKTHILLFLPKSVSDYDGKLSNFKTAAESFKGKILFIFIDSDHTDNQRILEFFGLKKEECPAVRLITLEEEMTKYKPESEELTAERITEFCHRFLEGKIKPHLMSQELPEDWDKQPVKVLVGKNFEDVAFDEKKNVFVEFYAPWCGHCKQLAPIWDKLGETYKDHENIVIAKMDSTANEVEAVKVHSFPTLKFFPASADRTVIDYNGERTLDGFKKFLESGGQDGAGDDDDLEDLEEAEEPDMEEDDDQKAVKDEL

Compound | active site disulfide bond formation under equilibrium conditions (human wild-type PDI) | tumor growth (tumor growth) | reaction of MPB with the catalytic cysteines of thioredoxin (thioredoxin) | reaction of MPB with the catalytic cysteines of ERp5 (ERp5) | reaction of MPB with the catalytic cysteines of ERp57 (ERp57)
CCOC(=O)c1c(CNCCN(CC)CC)n(-c2ccccc2)c2cc(Br)c(O)cc12 [bepristat 2a] | impairs active site disulfide bond formation | – | – | – | –
C#CC(=O)N(c1ccc(OC)cc1OC)C(C(=O)NCC(=O)OCC)c1cccs1 (centres unmarked) [PACMA-31, N-(2,4-Dimethoxyphenyl)-N-(1-oxo-2-propyn-1-yl)-2-(2-thienyl)glycyl-glycine ethyl ester, reference compound] | – | impairs tumor growth | interfered with the reaction of maleimide-polyethylene glycol-2-biotin (MPB) | interfered with the reaction of maleimide-polyethylene glycol-2-biotin (MPB) | interfered with the reaction of maleimide-polyethylene glycol-2-biotin (MPB)
